Assay results taken from patent US9062071B2, “Substituted piperidines as HDM2 inhibitors” (Merck Sharp & Dohme Corp, priority 2011, dated 2015).

molecular target: HDM2 protein (Homo sapiens, UniProt Q00987); experiment: fluorescence polarization screening assay (FP IC50); format: binding; conditions: class symbols
Method: The compounds were evaluated to determine activity at the HDM2 protein by known methods such as the fluorescence polarization screening assay that measures the inhibitory concentration that achieves 50% of maximal activity (FP IC50) and the dissociation constant for inhibitor binding (FP Ki). [Zhang et al., J. Analytical Biochemistry 331: 138-146 (2004)].

Chain of HDM2 protein (Q00987 whole entry): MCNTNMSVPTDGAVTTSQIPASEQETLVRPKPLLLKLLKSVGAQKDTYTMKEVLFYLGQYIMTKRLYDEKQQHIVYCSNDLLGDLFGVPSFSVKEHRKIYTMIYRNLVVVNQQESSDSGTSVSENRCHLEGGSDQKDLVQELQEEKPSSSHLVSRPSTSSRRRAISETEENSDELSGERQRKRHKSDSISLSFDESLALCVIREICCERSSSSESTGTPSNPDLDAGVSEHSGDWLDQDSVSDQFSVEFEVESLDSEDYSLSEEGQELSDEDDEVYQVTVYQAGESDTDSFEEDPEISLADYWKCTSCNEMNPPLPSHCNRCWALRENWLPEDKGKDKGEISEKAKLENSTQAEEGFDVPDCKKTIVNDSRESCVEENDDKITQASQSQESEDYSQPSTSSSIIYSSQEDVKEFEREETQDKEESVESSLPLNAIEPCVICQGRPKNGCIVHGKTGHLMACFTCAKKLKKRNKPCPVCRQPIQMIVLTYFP

| Structure (SMILES) | IC50 [nM] |
| --- | --- |
| COCC1c2ccc(Cl)cc2CCN1C(=O)[C@]1(Oc2csc(C(F)(F)F)c2)CCCN(C(=O)c2ncccc2C(F)(F)F)[C@@H]1CC(=O)O (stereo partly drawn) [Compound A18, [(2R,3S)-3-{[6-chloro-1-(methoxymethyl)-3,4-dihydroisoquinolin-2(1H)-yl]carbonyl}-1-{[3-(trifluoromethyl)pyridin-2-yl]carbonyl}-3-{[5-(trifluoromethyl)thiophen-3-yl]oxy}piperidin-2-yl]acetic acid] | 1 to 100 |
| CCC[C@H]1N(C(=O)c2ncccc2C(F)(F)F)CCC[C@@]1(Oc1csc(C(F)(F)F)c1)C(=O)N1Cc2ccc(Cl)cc2C[C@@H]1C(C)CC(=O)O (stereo partly drawn) [Compound A133, 3-[(3R)-6-chloro-2-{[(2R,3S)-2-propyl-1-{[3-(trifluoromethyl)pyridin-2-yl]carbonyl}-3-{[5-(trifluoromethyl)thiophen-3-yl]oxy}piperidin-3-yl]carbonyl}-1,2,3,4-tetrahydroisoquinolin-3-yl]butanoic acid] | 1 to 100 |
| CCC[C@H]1N(C(=O)c2ncccc2C(F)(F)F)CCC[C@@]1(Oc1csc(C(F)(F)F)c1)C(=O)N1CCc2cc(Cl)ccc2C1CN1CCCC1 (stereo partly drawn) [Compound A15, 6-chloro-2-{[(2R,3S)-2-propyl-1-{[3-(trifluoromethyl)pyridin-2-yl]carbonyl}-3-{[5-(trifluoromethyl)thiophen-3-yl]oxy}piperidin-3-yl]carbonyl}-1-(pyrrolidin-1-ylmethyl)-1,2,3,4-tetrahydroisoquinoline] | 101 to 20000 |
| COCC1c2ccc(Cl)cc2CCN1C(=O)[C@]1(Oc2csc(C(F)(F)F)c2)CCCN(C(=O)c2ncccc2C(F)(F)F)[C@@H]1CCN1CCC(CCO)CC1 (stereo partly drawn) [Compound A20, 2-(1-{2-[(2R,3S)-3-{[6-chloro-1-(methoxymethyl)-3,4-dihydroisoquinolin-2(1H)-yl]carbonyl}-1-{[3-(trifluoromethyl)pyridin-2-yl]carbonyl}-3-{[5-(trifluoromethyl)thiophen-3-yl]oxy}piperidin-2-yl]ethyl}piperidin-4-yl)ethanol] | 1 to 100 |
| O=C(c1ncccc1C(F)(F)F)N1CCC[C@@](Oc2csc(C(F)(F)F)c2)(C(=O)N2CCc3cc(F)ccc3C2)[C@H]1CCN1CCOCC1 [Compound A7, 6-fluoro-2-{[(2R,3S)-2-(2-morpholin-4-ylethyl)-1-{[3-(trifluoromethyl)pyridin-2-yl]carbonyl}-3-{[5-(trifluoromethyl)thiophen-3-yl]oxy}piperidin-3-yl]carbonyl}-1,2,3,4-tetrahydroisoquinoline] | 1 to 100 |
| COCC1c2ccc(Cl)cc2CCN1C(=O)[C@]1(Oc2csc(C(F)(F)F)c2)CCCN(C(=O)c2ncccc2C(F)(F)F)[C@@H]1CCN1CCCC1 (stereo partly drawn) [Compound A16, 6-chloro-1-(methoxymethyl)-2-{[(2R,3S)-2-(2-pyrrolidin-1-ylethyl)-1-{[3-(trifluoromethyl)pyridin-2-yl]carbonyl}-3-{[5-(trifluoromethyl)thiophen-3-yl]oxy}piperidin-3-yl]carbonyl}-1,2,3,4-tetrahydroisoquinoline] | 1 to 100 |
| CCC[C@H]1N(C(=O)c2ncccc2C(F)(F)F)CCC[C@@]1(Oc1csc(C(F)(F)F)c1)C(=O)N1CCc2cc(Cl)ccc2C1C1CCC(C(=O)O)C1 (stereo partly drawn) [Compound A96, 3-(6-chloro-2-{[(2R,3S)-2-propyl-1-{[3-(trifluoromethyl)pyridin-2-yl]carbonyl}-3-{[5-(trifluoromethyl)thiophen-3-yl]oxy}piperidin-3-yl]carbonyl}-1,2,3,4-tetrahydroisoquinolin-1-yl)cyclopentanecarboxylic acid] | 1 to 100 |
| COCC1c2ccc(Cl)cc2CCN1C(=O)[C@]1(Oc2csc(C(F)(F)F)c2)CCCN(C(=O)c2ncccc2C(F)(F)F)[C@@H]1CCNC1CCOCC1 (stereo partly drawn) [Compound A22, N-{2-[(2R,3S)-3-{[6-chloro-1-(methoxymethyl)-3,4-dihydroisoquinolin-2(1H)-yl]carbonyl}-1-{[3-(trifluoromethyl)pyridin-2-yl]carbonyl}-3-{[5-(trifluoromethyl)thiophen-3-yl]oxy}piperidin-2-yl]ethyl}tetrahydro-2H-pyran-4-amine] | 1 to 100 |
| CCC[C@H]1N(C(=O)c2ncccc2C(F)(F)F)CCC[C@@]1(Oc1csc(C(F)(F)F)c1)C(=O)N1CCc2cc(Cl)ccc2C1CC(C)(C)C(=O)O (stereo partly drawn) [Compound A108, 3-(6-chloro-2-{[(2R,3S)-2-propyl-1-{[3-(trifluoromethyl)pyridin-2-yl]carbonyl}-3-{[5-(trifluoromethyl)thiophen-3-yl]oxy}piperidin-3-yl]carbonyl}-1,2,3,4-tetrahydroisoquinolin-1-yl)-2,2-dimethylpropanoic acid] | 1 to 100 |
| CCC[C@H]1N(C(=O)c2ncccc2C(F)(F)F)CCC[C@@]1(Oc1csc(C(F)(F)F)c1)C(=O)N1CCc2cc(F)ccc2C1C(=O)N1CCN(CCO)CC1 (stereo partly drawn) [Compound A94, 2-{4-[(6-fluoro-2-{[(2R,3S)-2-propyl-1-{[3-(trifluoromethyl)pyridin-2-yl]carbonyl}-3-{[5-(trifluoromethyl)thiophen-3-yl]oxy}piperidin-3-yl]carbonyl}-1,2,3,4-tetrahydroisoquinolin-1-yl)carbonyl]piperazin-1-yl}ethanol] | 101 to 20000 |
| CCC[C@H]1N(C(=O)c2ncccc2C(F)(F)F)CCC[C@@]1(Oc1csc(C(F)(F)F)c1)C(=O)N1CCc2cc(Cl)c(Cl)cc2C1 [Compound A87, 6,7-dichloro-2-{[(2R,3S)-2-propyl-1-{[3-(trifluoromethyl)pyridin-2-yl]carbonyl}-3-{[5-(trifluoromethyl)thiophen-3-yl]oxy}piperidin-3-yl]carbonyl}-1,2,3,4-tetrahydroisoquinoline] | 101 to 20000 |
| CCC[C@H]1N(C(=O)c2ncccc2C(F)(F)F)CCC[C@@]1(Oc1csc(C(F)(F)F)c1)C(=O)N1CCc2cc(Cl)ccc2[C@@H]1CCC(=O)NC#N [Compound A80, 3-[(1S)-6-chloro-2-{[(2R,3S)-2-propyl-1-{[3-(trifluoromethyl)pyridin-2-yl]carbonyl}-3-{[5-(trifluoromethyl)thiophen-3-yl]oxy}piperidin-3-yl]carbonyl}-1,2,3,4-tetrahydroisoquinolin-1-yl]-N-cyanopropanamide] | 1 to 100 |

Other lines, results leading:

| IC50 [nM] | Structure (SMILES) |
| --- | --- |
| 1 to 100 | CCC[C@H]1N(C(=O)c2ncccc2C(F)(F)F)CCC[C@@]1(Oc1csc(C(F)(F)F)c1)C(=O)N1CCc2cc(Br)ccc2C1 [Compound A50, 6-bromo-2-{[(2R,3S)-2-propyl-1-{[3-(trifluoromethyl)pyridin-2-yl]carbonyl}-3-{[5-(trifluoromethyl)thiophen-3-yl]oxy}piperidin-3-yl]carbonyl}-1,2,3,4-tetrahydroisoquinoline] |
| 1 to 100 | CCC[C@H]1N(C(=O)c2ncccc2C(F)(F)F)CCC[C@@]1(Oc1csc(C(F)(F)F)c1)C(=O)N1Cc2cc(F)ccc2C[C@H]1CCC(=O)O [Compound A147, 3-[(3R)-7-fluoro-2-{[(2R,3S)-2-propyl-1-{[3-(trifluoromethyl)pyridin-2-yl]carbonyl}-3-{[5-(trifluoromethyl)thiophen-3-yl]oxy}piperidin-3-yl]carbonyl}-1,2,3,4-tetrahydroisoquinolin-3-yl]propanoic acid] |
| 101 to 20000 | CCC[C@H]1N(C(=O)c2ncccc2C(F)(F)F)CCC[C@@]1(Oc1csc(C(F)(F)F)c1)C(=O)N1CCc2cc(-c3ccccc3)ccc2C1 [Compound A62, 6-phenyl-2-{[(2R,3S)-2-propyl-1-{[3-(trifluoromethyl)pyridin-2-yl]carbonyl}-3-{[5-(trifluoromethyl)thiophen-3-yl]oxy}piperidin-3-yl]carbonyl}-1,2,3,4-tetrahydroisoquinoline] |
| 101 to 20000 | CCC[C@H]1N(C(=O)c2ncccc2C(F)(F)F)CCC[C@@]1(Oc1csc(C(F)(F)F)c1)C(=O)N1Cc2ccccc2C(C(=O)O)C1 (stereo partly drawn) [Compound A154, 2-{[(2R,3S)-2-propyl-1-{[3-(trifluoromethyl)pyridin-2-yl]carbonyl}-3-{[5-(trifluoromethyl)thiophen-3-yl]oxy}piperidin-3-yl]carbonyl}-1,2,3,4-tetrahydroisoquinoline-4-carboxylic acid] |
| 1 to 100 | CCC[C@H]1N(C(=O)c2ncccc2C(F)(F)F)CCC[C@@]1(Oc1csc(C(F)(F)F)c1)C(=O)N1CCc2cc(Cl)ccc2C1CCCC(=O)O (stereo partly drawn) [Compound A73, 4-(6-chloro-2-{[(2R,3S)-2-propyl-1-{[3-(trifluoromethyl)pyridin-2-yl]carbonyl}-3-{[5-(trifluoromethyl)thiophen-3-yl]oxy}piperidin-3-yl]carbonyl}-1,2,3,4-tetrahydroisoquinolin-1-yl)butanoic acid] |
| 101 to 20000 | CCC[C@H]1N(C(=O)c2ncccc2C(F)(F)F)CCC[C@@]1(Oc1csc(C(F)(F)F)c1)C(=O)N1CCc2sccc2C1 [Compound A8, 5-{[(2R,3S)-2-propyl-1-{[3-(trifluoromethyl)pyridin-2-yl]carbonyl}-3-{[5-(trifluoromethyl)thiophen-3-yl]oxy}piperidin-3-yl]carbonyl}-4,5,6,7-tetrahydrothieno[3,2-c]pyridine] |
| 101 to 20000 | CCC[C@H]1N(C(=O)c2ncccc2C(F)(F)F)CCC[C@@]1(Oc1csc(C(F)(F)F)c1)C(=O)N1CCc2ccc(C#N)cc2C1 [Compound A5, 2-{[(2R,3S)-2-propyl-1-{[3-(trifluoromethyl)pyridin-2-yl]carbonyl}-3-{[5-(trifluoromethyl)thiophen-3-yl]oxy}piperidin-3-yl]carbonyl}-1,2,3,4-tetrahydroisoquinoline-7-carbonitrile] |
| 1 to 100 | CCC[C@H]1N(C(=O)c2ncccc2C(F)(F)F)CCC[C@@]1(Oc1csc(C(F)(F)F)c1)C(=O)N1Cc2ccc(Cl)cc2C[C@@H]1C[C@H](C)C(=O)O [Compound A137, (2S)-3-[(3S)-6-chloro-2-{[(2R,3S)-2-propyl-1-{[3-(trifluoromethyl)pyridin-2-yl]carbonyl}-3-{[5-(trifluoromethyl)thiophen-3-yl]oxy}piperidin-3-yl]carbonyl}-1,2,3,4-tetrahydroisoquinolin-3-yl]-2-methylpropanoic acid] |
